Assay results taken from patent US10745408B2, “Biologically active taxane analogs and methods of treatment by oral administration” (Tapestry Pharmaceuticals, Inc., priority 2007, dated 2020).

Legend:
[1] = tested on: bovine microtubule protein; experiment: In vitro ED50 MT polymerization study (DAPI fluorescence tubulin assay); assay type: biochemical; conditions: for ED50 Compound/ED50 Paclitaxel: ratio; for EC50: tubulin polymerization, 37° C. 30 minutes, maximum assembly = 25 μM paclitaxel
Description: In Vitro ED50 MT Polymerization Study
In this tubulin binding assay, microtubule protein (MTP) is used as a substrate. The assay contains bovine tubulin plus microtubule associated proteins (MAP). MTP is polymerized into microtubules in the presence of DAPI (4′,6′-diamidino-2-phenylindole), a fluorescent compound. DAPI binds to tubulin; when microtubules are formed and there is an enhancement of fluorescence. The microtubule formation is measured as a function of time, using a fluorescence plate reader. […] The method used is based on the procedure published by Donna M. Barron, et al, “Fluorescence-based high-throughput assay for antimicrotuble drugs” Analytical Biochemistry, 315: 49-56, 2003, which is incorporated by reference in its entirety. The excitation wavelength, in that assay, was set at 370 nm and the emission wavelength was set at 450 nm for the DAPI experiments.
A Bio-Tek FL 600 microplate Fluorescence Reader was used to measure the relative level of fluorescence in the DAPI assay.
Assays were conducted in 96-well plates. Each well contained a total volume of 0.1 mL consisting of PEM buffer (0.1 M Pipes, 1 mM EGTA, 1 mM MgCl2, pH 6.9), 0.2 mg bovine microtubule protein, and 10 μg of DAPI. […] The final DMSO concentration was 4%. The plates were incubated at 37° C. for 30 minutes and read in a fluorescence plate reader using an excitation wavelength of 360 nm and an emission wavelength of 460 nm. Fluorescence values were corrected for the sample without compound.
Experiments were done twice in triplicate. Results were subsequently combined and fit to a non-linear regression program.

[2] = tested on: U251 human CNS tumor cells (glioblastoma); conditions: temozolomide 80 mg/kg/dose po q4d×3
From the text: Tumor Model: Each animal was implanted with one million U251 human CNS tumor cells from an in vitro cell line by ic injection with a 25 gauge needle. The day of tumor implantation (May 24, 2006) was designated as day 0. A sufficient number of mice were implanted so that animals with body weights in a range as narrow as possible were selected for the trial on the day of treatment initiation (day 1 after tumor implantation). Animals were randomly assigned to the treatment groups and individually identified by earmark codes.
A portion of this solution was then diluted with the complete vehicle to achieve the lower dosing concentration of 1.2 mg/mL. […] Temozolomide (Temodar, Schering Corporation) was prepared on each day of injection in Klucel+tween 80 at a concentration of 4 mg/mL. Temozolomide was administered within 5 minutes of formulation on the basis of exact body weight using a volume of 0.2 mL/10 g of body weight.
Data Collection: Animal health surveillance was conducted and mortality data were collected daily. The animals were weighed twice weekly starting with the first day of treatment.
Study Duration: The study was terminated 100 days after tumor implantation. Any animal found moribund or whose body weight dropped below 14 g was euthanized prior to study termination.
Parameters Evaluated: Number of 100-day survivors, median day of death, and the increase in lifespan based on median day of death and expressed as a percentage (% ILS), median survival time and the % ILS based on median survival time.

SMILES	ED50 Compound/ED50 Paclitaxel [1]	EC50 [1]	ILS based on median survival time [2]	median day of death [2]	median survival time [2]	survivors day 100 [2]
CC(=O)O[C@@]12CO[C@@H]1C[C@H](O)[C@@]1(C)C(=O)[C@H](O)C3=C(C)[C@@H](OC(=O)[C@H](O)[C@@H](NC(=O)OC(C)(C)C)c4ccccc4)C[C@@](O)([C@@H](OC(=O)c4ccccc4)[C@H]21)C3(C)C [Docetaxel]	1.07	3.18 ± 0.45 µM	–	–	–	–
C/C(=C\c1csc(C)n1)[C@@H]1C[C@@H]2O[C@]2(C)CCC[C@H](C)[C@H](O)[C@@H](C)C(=O)C(C)(C)[C@@H](O)CC(=O)O1 [Epothilone B]	1.11	3.31 ± 0.51 µM	–	–	–	–
Cn1nnc2c(C(N)=O)ncn2c1=O [temozolomide, Temozolomide]	–	–	400%	48 days	50 days	100 = 1)
